This note sets out measurements from patent publication US20050196362A1, “Personal care compositions containing highly branched primary alcohol component” (priority 2004, published 2005).

A short description of series [1]: In vitro SPF of sunscreen formulation with dispersing agent. Conditions: sunscreen formulation with 15.00 % by weight dispersing agent; artificial medium. As for the experimental part: (§1) This example compares the alcohol of the present invention to several other dispersing agents in terms of in vitro SPF and viscosity. In vitro SPF means that the test was not carried out on human skin, but an artificial medium. The sunscreen formulation is manufactured as follows. The ingredients of Phase A are combined together at 75° C. The ingredients of Phase B are combined together at 75° C. Phase B is then added to Phase A. Phase C is added to the resulting mixture, followed by cooling of the mixture to 40° C. and adding Phase D. The formulation is ready for packaging at a temperature of 35° C.

Series [2] in a line: Viscosity of sunscreen formulation with dispersing agent. Format: physicochemical. The settings on record: sunscreen formulation with 15.00 % by weight dispersing agent. On the procedure:
as §1

A short description of series [3]: Oven stability test of W/O and O/W lotions. Format: physicochemical. Conditions: 90 days at 23° C. and 45° C. On the procedure:
Stability Tests: All W/O and O/W lotions were placed on stability testing for phase and odor stability monitoring for 90 days at 23° C. (room temperature) and 45° C.

The nature of series [4]: Solubility profile of branched emollient alcohols in cosmetic solvents. Format: physicochemical. On the set-up: key: +: Soluble; +/−: Dispersible.
The nature of series [5]: Viscosity of lotion/moisturizer emulsions containing the fatty alcohol. It counts as physicochemical. As for the experimental part: Solubility: Two emulsion types (W/O-water-in-oil night cream/lotion and O/W-oil-in-water moisturizer lotion) were prepared. Both types of products incorporated commonly used cosmetic ingredients. The C1617 MM MO and the Guerbet C16 alcohols were used at 15% in the W/O lotion and 10% in the moisturizer.
MO C1617 mono-methyl branched primary alcohol was formulated in a water-in-oil night cream and an oil-in-water moisturizer formula as indicated in Tables 8 and 10 respectively. The viscosity and formula properties of the MO methyl-branched primary alcohol were evaluated relative to a branched C18 emollient alcohol and the data is indicated in Tables 9 and 11 respectively.

Series [6] in a line: Freeze/Thaw testing of prototype formulation (3 cycles). Format: physicochemical. Conditions: three 24 hr. freeze/thaw cycles. On the procedure: Freeze/Thaw testing: Phase stability was observed using approximately 30 ml of a prototype formulation. After preparation, the samples were cooled until solid for 24 hrs. They were allowed to equilibrate to room temperature when the appearance of the formulation was recorded. This process was repeated for three 24 hr. freeze/thaw cycles.

A short description of series [7]: Pigment dispersion: amount of Eusolex T2000 dispersed before viscosity reaches 10,000 cps. Format: physicochemical. Conditions: 100 g solubilizer/dispersant; Brookfield RVT 20 rpm, 25° C. As for the experimental part: (§2) The branched primary alcohol component and the Z-cote were mixed for 15 minutes at 5000 rpm using a Silverson mixer to form a dispersion of zinc oxide in the alcohol component. The dispersion was allowed to equilibrate to room temperature (25° C.), and then viscosity measurements were taken using a Brookfield (RTM) RVT Viscometer set at 20 rpm. Additional Z-cote was then added to the branched alcohol component in incremental amounts of 15 g. Viscosity measurements were taken after mixing each incremental amount of Z-cote with the branched alcohol component for 15 minutes and after allowing the resulting dispersion to return to room temperature. When the viscosity of the dispersion reached or exceeded 10,000 cps no further additions of Z-cote were made and no further viscosity measurements were taken. A target viscosity of 10,000 cps was selected since a dispersion having a viscosity of greater than 10,000 cps is not preferred for use in a sunscreen composition.
(§3) Pigment Dispersion: Pigment was added to a 100 gm of emollient sample. The mixture was blended using a Silverson mixer for 15 minutes at 5000 rpm. The viscosity was measured after the sample had equilibrated to room temperature.

The nature of series [8]: Pigment dispersion: amount of Z-cote HP1 dispersed before viscosity reaches 10,000 cps. Format: physicochemical. Conditions: 100 g solubilizer/dispersant; Brookfield RVT 20 rpm, 25° C. As for the experimental part:
as §2, §3

A short description of series [9]: Pigment dispersion: amount of Z-cote dispersed before viscosity reaches 10,000 cps. Format: physicochemical. The settings on record: 100 g solubilizer/dispersant; Brookfield RVT 20 rpm, 25° C. On the procedure: as §2
From FIG. 1, the amount of Z-cote needed to provide a dispersion having a viscosity of 10,000 cps may be determined for each solubilizer/dispersant.
as §3

Where [10] appears, read: Table 8 formulation, 15.0 % wt fatty alcohol.
Where [11] appears, read: Table 10 oil-in-water moisturizer, 10.0 % wt fatty alcohol.

As for `CCCCCCCCCCCCCCCC(=O)OCC(CC)CCCC` (centres unmarked) [Ethylhexylpalmitate], the “In-vitro SPF” value in series [1] worked out at 22.73. The “Viscosity, cps” value in series [2] worked out at 13000 cps.

Consider `CCCCCCCCC(CO)CCCCCC` (centres unmarked) [Guerbet C16 Branched], for which the “In-vitro SPF” value in series [1] amounted to 22.6. In addition, the “Oven Stability” value in series [3] (setting [10]) and in series [3] (setting [11]) was “Pass” in each case. In addition, the figures for the “Viscosity, cps” value in [2], in series [5] (setting [10]) and in series [5] (setting [11]) were 2700 cps, 7,600 cps and 11,300 cps, respectively. Moreover, the Solubility entry is recorded as “+” in series [4] (C12-15 Alkyl Benzoate (90%), @ 25° C.); “+” in series [4] (C12-15 Alkyl Benzoate (90%), @ 50° C.); “+” in [4] (Dimethicone 245 (90%), @ 25° C.); “+” in series [4] (Dimethicone 245 (90%), @ 50° C.); “+” in series [4] (Isododecane (90%), @ 25° C.); “+” in series [4] (Isododecane (90%), @ 50° C.). Moreover, the Solubility entry in [4] (Isohexadecane (90%), @ 25° C.) was “+”; in series [4] (Isohexadecane (90%), @ 50° C.) it was “+”; in series [4] (Isopropylmyristyl Alcohol (90%), @ 25° C.), “+”; in series [4] (Isopropylmyristyl Alcohol (90%), @ 50° C.), “+”; in series [4] (Mineral Oil (90%), @ 25° C.), “+”; in [4] (Mineral Oil (90%), @ 50° C.), “+”. Besides, the Solubility entry is given as “+” in series [4] (Octocrylene (30%), @ 25° C.); “+” in series [4] (Octocrylene (30%), @ 50° C.); “+” in [4] (Octyl Dimethyl Paba (30%), @ 25° C.); “+” in series [4] (Octyl Dimethyl Paba (30%), @ 50° C.); “+” in series [4] (Octyldodecanol (90%), @ 25° C.); “+” in series [4] (Octyldodecanol (90%), @ 50° C.). For the same molecule, the Solubility entry is recorded as “+/−” in series [4] (Propylene Glycol (90%), @ 25° C.); “+” in series [4] (Propylene Glycol (90%), @ 50° C.); “+” in [4] (Sesame Oil (90%), @ 25° C.); “+” in [4] (Sesame Oil (90%), @ 50° C.). Further, the “Freeze-Thaw (3 cycles)” value in series [6] (setting [10]) and in series [6] (setting [11]) was “Pass” in each case.

Take `CCCCCCCCOC(=O)CCCCCCCCC(=O)OCCCCCCCC` [Dioctyl sebacate (DOS), Dioctyl sebacate]: the “Amount in grams of Eusolex T2000 needed to give a viscosity of 10,000 cps” value in series [7] is 34 grams. For the same molecule, the “Amount in grams of Z-cote HP1 needed to give a viscosity of 10,000 cps” value in series [8] stood at 50 grams. Further, the “Amount in grams of Z-cote needed to give a viscosity of 10,000 cps” value in [9] came to 20 grams.

On to “octyldodecyl neopentanoate [Elefac I-205]”, for which the “Amount in grams of Eusolex T2000 needed to give a viscosity of 10,000 cps” value in series [7] is 35 grams. In addition, in series [8], the “Amount in grams of Z-cote HP1 needed to give a viscosity of 10,000 cps” value turned out to be 65 grams. The “Amount in grams of Z-cote needed to give a viscosity of 10,000 cps” value in series [9] is given as 24 grams.
